The record followed here is publication PMC7833800 (Journal of Virological Methods, 2020).

Like-named read-outs stand apart in the source and are kept apart here.

The target of the test is SARS-CoV RTC (nsp12 in complex with nsp7L8) (Severe acute respiratory syndrome coronavirus, UniProt P0C6X7). Briefly: biochemical.

`O=c1ccn([C@@H]2O[C@H](COP(=O)(O)OP(=O)(O)OP(=O)(O)O)C[C@H]2O)c(=O)[nH]1` [3’dUTP] displayed an IC50 of 6.7 µM.
For the compound `O=c1cc(-c2ccc(O)cc2)oc2cc(O)cc(O)c12` [Apigenin], the IC50 (IC50) was found to be 96 µM.
Compound `O=c1cc(-c2ccc(Oc3c(O)cc4oc(-c5ccc(O)cc5)cc(=O)c4c3O)cc2)oc2cc(O)cc(O)c12` [Hinokiflavone] showed an IC50 (IC50) of 0.95 µM.

As a reminder, the IC50 is the midpoint of a concentration-inhibition curve.
